The values below come from paper PMC9481597 (Communications Biology, 2022).

Assay [1] has as its system MPro^WT (SARS-CoV-2 main protease, mature dimer). Conditions: ITC, cited from earlier work; for Kd: read-out: Kd = Ki. On the technique in general: Isothermal titration calorimetry measures the heat released or taken up as one component is titrated into another.
The target in a further assay is MPro^C145A (Severe acute respiratory syndrome coronavirus 2, UniProt P0DTC1, C3408A). Type of assay: binding, SARS-CoV-2.
In assay [2] the target is T1, MPro^1-199(C145A) (Severe acute respiratory syndrome coronavirus 2, UniProt P0DTC1, C3408A). Format: binding, SARS-CoV-2.
In assay [3] the test system is MPro^WT (SARS-CoV-2 main protease, mature dimer). Type of assay: binding.
The target of assay [4] is T1, MPro^1-199(C145A). More on the design: species or system SARS-CoV-2.

Where two headings read alike, the source gives them in different places.

For `CC(C)C[C@H](NC(=O)OCc1ccccc1)C(=O)N[C@H](C=O)C[C@@H]1CCNC1=O` [GC373], in assay [1] (GC373), the N is 0.99 ± 0.01, the ΔG was -9.4 kcal/mol, the ΔH is -6.7 ± 0.1 kcal/mol and the ΔS is on record as 9.1 cal/mol/K. For the same compound, the Kd in assay [1] (GC373) was 150 ± 30 nM. For the same compound, the “Kd = Ki” value at MPro^C145A is on record as “no response”.

Take `CC(C)(C)[C@H](NC(=O)C(F)(F)F)C(=O)N1C[C@H]2[C@@H]([C@H]1C(=O)N[C@H](C#N)C[C@@H]1CCNC1=O)C2(C)C` [NMV, nirmatrelvir]: in assay [1] (NMV), the N was 0.99 ± 0.003, the ΔG result is “–11.2 kcal/mol”, the ΔH result is “–10.75 ± 0.7 kcal/mol” and the ΔS is on record as 1.57 cal/mol/K. Besides, the Kd in assay [1] (NMV) is 7 ± 3 nM. On MPro^1-199(C145A) [2], the “protein-inhibitor adduct in mass spectra” value is given as “absence of the imidate thioester adduct”. For the same compound, at MPro^C145A, the N is recorded as 0.96 ± 0.04, the ΔH result is “–3.89 ± 0.2 kcal/mol” and the ΔS was 12.6 cal/mol/K. In addition, in assay [3], the “increase in binding affinity by nitrile warhead reacting with C145” value is ~ 400 times. Further, on MPro^1-199(C145A) [4], the Kdimer.app is recorded as above 200 µM and the “dimer formation in SV-AUC” value was “no faster sedimenting species other than a monomer was observed”.

One may read the Kd as the concentration at which binding is half-saturated.
